Measurements as given in patent US10414734B2, “5-hydroxyalkylbenzimidazoles as mIDH1 inhibitors” (BAYER PHARMA AKTIENGESELLSCHAFT, priority 2015, dated 2019).

Assays:
IDH1 R132H enzyme = IDH1 R132H enzyme (Homo sapiens (Human), UniProt O75874, R132H); test: Mutant IDH1 R132H biochemical assay; conditions: luminescent NADPH consumption readout; 1.5 nM enzyme, 1 μM NADPH, 250 μM α-KG, 30 min, 32° C.
Protocol: Mutant IDH1 R132H Biochemical Assay
mIDH1 catalyzes the NADPH-dependent reduction of alpha-ketoglutarate (α-KG) to (2R)-2-hydroxyglutarate (2-HG). NADPH consumption was measured by luminescent readout.
The biochemical reactions were performed at 32° C. in 384-well plates using a reaction volume of 41 μL and the following assay buffer conditions: 50 mM Tris pH 7.5, 100 mM NaCl, 20 mM MgCl2, 0.05% BSA, 0.01% Brij, 1 μM NADPH, and 250 μM α-KG. The IDH1 R132H enzyme was used in a final concentration of 1.5 nM. Test compounds were used in a concentration range between 0.002 and 10 μM. The final DMSO concentration was 2.4%.
The reaction was incubated for 30 minutes, then 40 μL of detection mix (0.75 μg/ml Luciferase, 0.02 U/ml Oxidoreductase, 4 μg/mL FMN, 2 μL/ml decanal/ethanol, 50 mM Tris pH 7.5, 0.5% Glycerin, 0.01% Tween-20, 0.05% BSA) was added. Luminescence was measured on a luminescent reader (10 seconds measuring time, 1 second integration period, 30% sensitivity). The decrease in luminescence is proportional to mIDH1 activity. IC50 values are determined by interpolation from plots of relative luminescence versus inhibitor concentration.

[1] = test system: LN229 R132H cells overexpressing mutated isocitrate dehydrogenase (mIDH); test: Mutant IDH1 cellular assay (2-HG in medium); format: cell-based; conditions: 2-HG in medium after 24 hours, fluorescence readout
Protocol: Mutant IDH1 Cellular Assay
Levels of (2R)-2-hydroxyglutarate (2HG) were measured in medium of a cell line with overexpression of mutated isocitrate dehydrogenase (mIDH) protein. mIDH catalyzes the NADPH-dependent reduction of alpha-ketoglutarate to 2-HG. Cells (LN229 R132H, Mohrenz et al., Apoptosis (2013) 18:1416-1425) were grown in DMEM containing 10% FCS. They were harvested by trypsin and seeded into 96-well plates. Cells were incubated overnight at 37° C. in 5% CO2. The next day test compounds were added to each cell well. The final concentration of DMSO was 0.1% and DMSO controls were included. The plates were then placed in an incubator for 24 hours.
2-HG was measured according to Balss et al. (Acta Neuropathol (2012) 124: 883-891). Briefly, perchloric acid was added to each well and the plates were centrifuged. Aliquots are removed and incubated with hydroxyglutarate dehydrogenase (HGDH), diaphorase, NAD+, and resazurin. The conversion of resazurin to resorufin was detected by fluorescence spectroscopy at Ex 540 nm Em 600 nm. The increase in fluorescence is proportional to 2-HG production. IC50 values are determined by interpolation from plots of relative fluorescence vs inhibitor concentration.

Chain of IDH1 R132H enzyme (O75874 whole entry R132H): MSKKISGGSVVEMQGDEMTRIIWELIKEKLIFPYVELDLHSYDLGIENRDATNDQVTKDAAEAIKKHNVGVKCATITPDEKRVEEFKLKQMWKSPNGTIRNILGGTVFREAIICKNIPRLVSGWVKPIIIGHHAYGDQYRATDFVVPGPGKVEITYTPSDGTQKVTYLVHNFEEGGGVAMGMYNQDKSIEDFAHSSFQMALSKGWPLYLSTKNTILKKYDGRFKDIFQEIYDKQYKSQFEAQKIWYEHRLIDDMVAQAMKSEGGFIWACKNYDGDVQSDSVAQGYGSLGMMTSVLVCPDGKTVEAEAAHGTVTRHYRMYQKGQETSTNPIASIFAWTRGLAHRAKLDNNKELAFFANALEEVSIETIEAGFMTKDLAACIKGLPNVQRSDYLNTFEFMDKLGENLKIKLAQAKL

Row | Compound | IC50 (IDH1 R132H enzyme) | IC50 ([1]; Homo sapiens, LN-229, 24 h) | IC50 [1]
1 | Cc1cc2c(cc1[C@@H](O)C(F)(F)F)nc(Nc1ccc(OC(F)(F)F)cc1)n2C1CC(C)(C)CC(C)(C)C1 (racemic) [Example 2-5, (±) 2,2,2-trifluoro-1-[6-methyl-1-(3,3,5,5-tetramethylcyclohexyl)-2-{[4-(trifluoromethoxy)phenyl]amino}-1H-benzimidazol-5-yl]ethanol] | 30 nM | 800 nM | –
2 | C[C@@H]1C[C@H](n2c(Nc3ccc(OC(F)(F)F)cc3)nc3cc(CO)ccc32)CC(C)(C)C1 (single isomer, unassigned; enantiomer a) [Example 2-1-1, (2-{[4-(trifluoromethoxy)phenyl]amino}-1-[(cis)-3,3,5-trimethylcyclohexyl]-1H-benzimidazol-5-yl)methanol, enantiomer A] | 50 nM | 1300 nM | –
3 | COc1cc2c(cc1CO)nc(Nc1ccc(OC(F)(F)F)cc1)n2[C@H]1C[C@@H](C)CC(C)(C)C1 (single isomer, unassigned; enantiomer a) [Example 2-6-1, (6-methoxy-2-{[4-(trifluoromethoxy)phenyl]amino}-1-[(cis)-3,3,5-trimethylcyclohexyl]-1H-benzimidazol-5-yl)methanol, enantiomer A] | 20 nM | – | 140 nM
4 | COc1cc2c(cc1C(C)(C)O)nc(Nc1ccc(OC(F)(F)F)cc1)n2[C@H]1C[C@@H](C)CC(C)(C)C1 (single isomer, unassigned; enantiomer a) [Example 2-7-1, 2-(6-methoxy-2-{[4-(trifluoromethoxy)phenyl]amino}-1-[(cis)-3,3,5-trimethylcyclohexyl]-1H-benzimidazol-5-yl)propan-2-ol, enantiomer A] | 50 nM | – | 480 nM
5 | C[C@@H]1C[C@H](n2c(Nc3ccc(OC(F)(F)F)cc3)nc3cc(C(C)(C)O)ccc32)CC(C)(C)C1 (single isomer, unassigned; enantiomer b) [Example 2-2-2, 2-(2-{[4-(trifluoromethoxy)phenyl]amino}-1-[(cis)-3,3,5-trimethylcyclohexyl]-1H-benzimidazol-5-yl)propan-2-ol, enantiomer B] | 40 nM | 500 nM | –
6 | COc1cc2c(cc1CO)nc(Nc1ccc(OC(F)(F)F)cc1)n2[C@H]1C[C@@H](C)CC(C)(C)C1 (single isomer, unassigned; enantiomer b) [Example 2-6-2, (6-methoxy-2-{[4-(trifluoromethoxy)phenyl]amino}-1-[(cis)-3,3,5-trimethylcyclohexyl]-1H-benzimidazol-5-yl)methanol, enantiomer B] | 110 nM | – | 630 nM
7 | COc1cc2c(cc1C(C)(C)O)nc(Nc1ccc(OC(F)(F)F)cc1)n2[C@H]1C[C@@H](C)CC(C)(C)C1 (single isomer, unassigned; enantiomer b) [Example 2-7-2, 2-(6-methoxy-2-{[4-(trifluoromethoxy)phenyl]amino}-1-[(cis)-3,3,5-trimethylcyclohexyl]-1H-benzimidazol-5-yl)propan-2-ol, enantiomer B] | 20 nM | – | 90 nM
8 | Cc1cc2c(cc1C(C)(C)O)nc(Nc1ccc(OC(F)(F)F)cc1)n2C1CC(C)(C)CC(C)(C)C1 [Example 2-4, 2-[6-methyl-1-(3,3,5,5-tetramethylcyclohexyl)-2-{[4-(trifluoromethoxy)phenyl]amino}-1H-benzimidazol-5-yl]propan-2-ol] | 30 nM | 550 nM | –
